Experimental data reported in patent publication US9949991B2, “Methods of treating aquaporin-mediated conditions” (Aeromics, Inc., priority 2013, dated 2018).
Values after ≈ are worked out from the molar mass of the structure shown. Like-named read-outs stand apart in the source and are kept apart here.

Tests used:
[1] = Bioconversion in mouse plasma in vitro; format: in vitro ADME
[2] = Solubility in water
[3] = system: mouse water toxicity model (cerebral edema); assay: Mouse water toxicity model, brain volume by MRI
Description: The first time point at 5.67 min coincides with the scan slice at the middle of the brain during the first post-injection scan. Other time points are placed in a similar manner. The data is fitted to a single exponential equation: V/V0=Vi+dVmax(1−e^(−kt)); • where V/V0=relative brain volume, Vi=initial relative brain volume, dVmax=maximum change in relative brain volume, k=first order rate constant (min^−1), and t=time in minutes.
Mouse Water Toxicity Model—Brain Volume by Magnetic Resonance Imaging (MRI): MRI is used to measure changes in brain volume in response to water shock, using the water toxicity model. As described for the survival and brain water content studies above, mice are injected, IP, with a water bolus alone or water bolus and test compound at 0.76 mg/kg, and changes in brain volume as detected by MRI are monitored. […] High resolution T2-weighted sagittal scans (resolution=0.1 mm×0.1 mm×0.7 mm) of the mouse head are obtained prior to water injection, 5.67 min post water injection, and then every 5.2 minutes until the animal expires from the water loading. […] The cross sectional area of the brain in each imaging slice is measured by manual region-of-interest selection using ImageJ. Brain volumes are then calculated for each scan by summing the individual cross sectional brain areas and multiplying by the slice thickness (0.7 mm).

[4] = system: AQP4; assay: Aquaporin-Mediated Cell Volume Change Assay, CHO cells expressing AQP4 (AQP4b); format: cell-based; conditions: 10 μM, stable CHO cell line, FIG. 2
Description: (§1) Structure activity relationships (SARs) are determined by assaying analogues of selected hits to guide chemistry for the preparation of new molecules to be tested for improved potency. For this iterative process we use a quantitative kinetic assay—the Aquaporin-Mediated Cell Volume Change Assa—in a 96-well multiplate reader. It detects changes in light scattering by a monolayer of CHO cells expressing the desired AQP as they shrink when exposed to hypertonic solution (300 mOsm→530 mOsm). FIG. 1 depicts the aquaporin-mediated cell volume change assay with AQP4 expressing cells (FIG. 1A) and AQP2 expressing cells (FIG. 1B). The cells expressing aquaporins shrink more rapidly than control cells, due to enhanced water flow, which shrinkage can be inhibited by a compound that inhibits the aquaporin.
(§2) In FIG. 1, aquaporin-expressing cells are shown in the presence of DMSO (triangles) or in the presence of the test compound (here, Compound 3) at 10 μM (squares), along with CHO-CD81 expressing control cells in the presence of DMSO (diamonds). Each curve represents an average of 16 wells in the 96-well plate.
(§3) In FIG. 1A, when the AQP4b cells treated with DMSO are exposed to hypertonic shock, the cells show rapid shrinking, giving a rise in light scattering (increasing relative change in absorbance, Abs/Abs0) followed by a decay as cells detach from the plate. […]

[5] = biological target: T1, AQP2 (Homo sapiens, UniProt P41181); assay: Aquaporin-Mediated Cell Volume Change Assay, CHO cells expressing AQP2; format: cell-based; conditions: 10 μM, stable CHO cell line, FIG. 2
T1 construct: expressed in transfected cells
T1 sequence (P41181 1-271): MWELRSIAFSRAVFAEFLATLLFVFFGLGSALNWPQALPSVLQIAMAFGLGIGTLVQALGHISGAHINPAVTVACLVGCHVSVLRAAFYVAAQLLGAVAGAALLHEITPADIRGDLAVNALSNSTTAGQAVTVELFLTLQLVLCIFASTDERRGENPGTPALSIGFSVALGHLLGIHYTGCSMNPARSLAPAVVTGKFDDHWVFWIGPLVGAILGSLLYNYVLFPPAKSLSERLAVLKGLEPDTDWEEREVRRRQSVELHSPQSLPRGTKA
Description: as §1, §2, §3

[6] = biological target: T2, AQP1 (Homo sapiens, UniProt P29972); assay: Aquaporin-Mediated Cell Volume Change Assay, CHO cells expressing AQP1 (specificity); format: cell-based; conditions: 10 μM, stable CHO cell line, FIG. 2
T2 construct: expressed in transfected cells
T2 sequence (P29972 1-269): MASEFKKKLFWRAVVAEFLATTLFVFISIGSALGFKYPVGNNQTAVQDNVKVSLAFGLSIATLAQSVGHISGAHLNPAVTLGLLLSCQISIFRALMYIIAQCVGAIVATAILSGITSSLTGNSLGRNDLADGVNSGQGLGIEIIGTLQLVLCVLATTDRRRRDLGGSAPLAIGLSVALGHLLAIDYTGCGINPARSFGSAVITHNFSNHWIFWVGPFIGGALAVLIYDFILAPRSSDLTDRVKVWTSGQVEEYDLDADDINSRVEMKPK
Description: as §1
(§4) The specificity of the compounds is tested against the most closely related of the 13 known aquaporins: AQP1, AQP2, AQP5 and both splice variants of AQP4 (A and B). A stable CHO cell line is created for each of the above aquaporins and the inhibition of water permeability using the Aquaporin-Mediated Cell Volume Change Assay with 10 μM Compound 3 is tested.

[7] = biological target: T3, AQP5 (Homo sapiens, UniProt P55064); assay: Aquaporin-Mediated Cell Volume Change Assay, CHO cells expressing AQP5 (specificity); format: cell-based; conditions: 10 μM, stable CHO cell line, FIG. 2
T3 construct: expressed in transfected cells
Description: as §1, §4

[8] = biological target: purified AQP4b (Homo sapiens, UniProt P55087); assay: Hummel-Dryer style binding assay with [3H]-Compound 4 and purified AQP4b; conditions: for Kd: detergent buffer, 1 μM [3H]-Compound 4, read-out: relative affinity
Description: To support the mechanism of action by which phenylbenzamides directly block AQP4, we perform in vitro binding studies using purified AQP4b and Compound 4 radiolabeled with ^3H. Using a Hummel-Dryer style assay, a gel filtration column is equilibratrated with buffer containing detergent, to maintain solubility of AQP4b, and 1 μM [^3H]-Compound 4. AQP4b is diluted to 250 μM in this column buffer and incubated at RT for 30 min. The sample is then applied to the column, fractions collected and the presence of [^3H]-Compound 4 detected by liquid scintillation counting. […] The rise in [^3H]-Compound 4 from a baseline value of 1 μM represents binding to each of these proteins.

[9] = system: mouse middle cerebral artery occlusion (MCAo) model; assay: Mouse MCAo stroke model, survival; format: in vivo; conditions: 2 mg/kg i.p. loading dose plus 1 mg/ml at 8 μl/h pump, versus saline, P<0.05
Description: To mimic this injury in mice, an intraluminal monofilament model of middle cerebral artery occlusion (MCAo) is used. Occlusion is achieved by inserting a surgical filament into the external carotid artery (ECA) and threading it forward into the internal carotid artery (ICA) until the tip blocks the origin of the MCA. […] This technique is used to study a temporary occlusion in which the MCA is blocked for one hour.
Survival—Mice are treated with Compound 5 using a 2 mg/kg i.p. loading dose and 1 mg/ml at 8 μl/h maintenance dose (delivered by an i.p. osmotic pump) of Compound 5, or given saline (controls; n=17) using an identical approach.

[10] = system: mouse middle cerebral artery occlusion (MCAo) model; assay: Mouse MCAo stroke model, cerebral edema by MRI and neurological outcome
Description: To mimic this injury in mice, an intraluminal monofilament model of middle cerebral artery occlusion (MCAo) is used. Occlusion is achieved by inserting a surgical filament into the external carotid artery (ECA) and threading it forward into the internal carotid artery (ICA) until the tip blocks the origin of the MCA. […] This technique is used to study a temporary occlusion in which the MCA is blocked for one hour. The filament is then removed allowing reperfusion to occur for 24 hours before the animal's brain was imaged using T2-weighted scans in a 9.4 T Bruker MRI scanner at the Case Center for Imaging Research (FIG. 10).
Cerebral Edema—Mice are given saline or treated with Compound 5 by multi-dosing at 5 mg/kg i.p. every three hours (n=8 per treatment). […] Ipsilateral and contralateral hemispheric volume is measured from the T2-weighted MR images of mice 24 hours post-icus. Relative change in hemispheric volume is calculated as a percent of the difference between ipsilateral brain volume (Vi) and contralateral brain volume (Vc) relative to the contralateral brain volume (Percent Change in Hemispheric Brain Volume=((Vi−Vc)/Vc)×100%.
Neurological Outcome—In the same experiment as above, animals are scored for neurological outcome on a simple 5 point scale described in Manley, G. T. et al., Aquaporin-4 Deletion in Mice Reduces Brain Edema After Acute Water Intoxication and Ischemic Stroke, Nature Medicine, 6, 159-163 (2000).

[11] = system: AQP; assay: AQP inhibition cell-based assay (Table 1)
Description: as §1

purified AQP4b, sequence (P55087 23-323): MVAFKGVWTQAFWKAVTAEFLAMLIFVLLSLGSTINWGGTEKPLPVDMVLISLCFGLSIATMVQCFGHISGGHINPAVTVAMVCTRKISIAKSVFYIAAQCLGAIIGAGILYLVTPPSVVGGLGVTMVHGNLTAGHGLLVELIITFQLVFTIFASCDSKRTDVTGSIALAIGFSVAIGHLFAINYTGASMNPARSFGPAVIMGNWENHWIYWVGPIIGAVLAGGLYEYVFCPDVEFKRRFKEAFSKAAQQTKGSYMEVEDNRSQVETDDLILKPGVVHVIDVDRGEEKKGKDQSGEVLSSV
T3 sequence (P55064 whole entry): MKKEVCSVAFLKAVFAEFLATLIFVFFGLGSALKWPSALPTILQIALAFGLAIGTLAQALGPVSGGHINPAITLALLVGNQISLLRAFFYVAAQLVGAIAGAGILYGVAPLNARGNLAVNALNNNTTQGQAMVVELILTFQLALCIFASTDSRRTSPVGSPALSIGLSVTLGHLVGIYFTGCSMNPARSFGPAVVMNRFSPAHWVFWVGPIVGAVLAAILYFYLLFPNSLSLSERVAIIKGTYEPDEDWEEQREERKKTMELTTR

O=C(Nc1cc(C(F)(F)F)cc(C(F)(F)F)c1)c1cc(Cl)ccc1OP(=O)(O)O
bioconversion to Compound 1 (in words) ([1]; added to mouse plasma in vitro): rapid bioconversion
time sufficient to render the salt undetectable ([1]; mouse plasma in vitro, 20° C.): Less than 5 minutes
level of the salt in plasma samples of mice injected IP (in words) (IP injection): undetectable
bioavailability and conversion to Compound 1 (in words) (IP injection, Compound 1 detected in plasma): good bioavailability and near-complete conversion

O=C(Nc1cc(C(F)(F)F)cc(C(F)(F)F)c1)c1cc(Cl)ccc1O [Compound 1, N-(3,5-Bis-trifluoromethyl-phenyl)-5-chloro-2-hydroxy-benzamide]
expected efficacious plasma concentration (taken from the mouse water toxicity model): 20 ng/mL
solubility [2]: 3.8 µg/mL (≈ 9.9 µM)
extent of CE during the period of observation (in words) ([3]; 0.76 mg/kg): reduced

O=C(Nc1cc(Cl)cc(Cl)c1)c1cc(Cl)ccc1O [Compound 3]
inhibition of water permeability (in words) [4]: inhibits
inhibition of water permeability (in words) [5]: inhibits
inhibition of water permeability (in words) [6]: poorly inhibits
inhibition of water permeability (in words) [7]: poorly inhibits

O=C(Nc1cc(C(F)(F)F)cc(C(F)(F)F)c1)c1cc(C(F)(F)F)ccc1O [Compound 4, N-[3,5-bis(trifluoromethyl)phenyl]-2-hydroxy-5-(trifluoromethyl)benzamide]
Kd ([8]; monomeric AQP4b): < 1 µM
binding to solubilized AQP4b (in words) ([8]; solubilized AQP4b): relatively weak binding
Kd ([8]; tetrameric AQP4b): ~100 µM

O=C(Nc1cc(C(F)(F)F)cc(C(F)(F)F)c1)c1cc(Cl)ccc1OP(=O)(O)O [Compound 5]
improvement in overall survival at 24 h [9]: 29.4%
solubility [2]: 1000 µg/mL (≈ 2160 µM)
neurological progression (in words) ([10]; 5 mg/kg i.p. every three hours): did not progress into a state of severe paralysis or death
relative change in ipsilateral brain volume ([10]; 5 mg/kg i.p. every three hours, 24 hours after MCAo, ±SEM, control 13.4%±1.9%): 4.2±1.7%
reduction in brain swelling after MCAo ([10]; 5 mg/kg i.p. every three hours, versus control): 3.2 fold
average neurological score ([10]; 5 point scale, P=0.025, control 2.77±0.66): 0.88±0.31

O=C(Nc1ccccc1)c1ccccc1 [Phenylbenzamide, reference compound]
AQP Inhibition Cell-Based Assay [11]: 4.5%
reduction in the rate of CE (in words) ([3]; 0.39 mg/kg): fails to show reduction
